Experimental data reported in patent publication US20020028945A1, “Heterocyclo substituted hydroxamic acid derivatives as cyclooxygenase-2 and 5-lipoxygenase inhibitors” (priority 1996, published 2002).
pIC50: −log10 of the molar value.

Legend:
carrageenan foot edema = test: Rat carrageenan foot pad edema test; type: in vivo; conditions: male Sprague-Dawley rats, oral, 3 h after carrageenan
Description: Rat Carrageenan Foot Pad Edema Test
The carrageenan foot edema test was performed with materials, reagents and procedures essentially as described by Winter, et al., (Proc. Soc. Exp. Biol. Med., 111, 544 (1962)). Male Sprague-Dawley rats were selected in each group so that the average body weight was as close as possible. Rats were fasted with free access to water for over sixteen hours prior to the test. The rats were dosed orally (1 mL) with compounds suspended in vehicle containing 0.5% methylcellulose and 0.025% surfactant, or with vehicle alone. One hour later a subplantar injection of 0.1 mL of 1% solution of carrageenan/sterile 0.9% saline was administered and the volume of the injected foot was measured with a displacement plethysmometer connected to a pressure transducer with a digital indicator. Three hours after the injection of the carrageenan, the volume of the foot was again measured. The average foot swelling in a group of drug-treated animals was compared with that of a group of placebo-treated animals and the percentage inhibition of edema was determined (Otterness and Bliven, Laboratory Models for Testing NSAIDs, in Non-steroidal Anti-Inflammatory Drugs, (J. Lombardino, ed. 1985)).

COX-1 = COX-1 (UniProt P23219); test: COX-1 activity in vitro (PGE2 ELISA, recombinant enzyme); type: biochemical, human or murine; conditions: recombinant COX-1, arachidonic acid 10 μM
Description: Evaluation of COX-1 and COX-2 activity in vitro a. Preparation of recombinant COX baculoviruses
(§1) Recombinant COX-1 and COX-2 were prepared as described by Gierse et al, [J. Biochem., 305, 479-84 (1995)]. A 2.0 kb fragment containing the coding region of either human or murine COX-1 or human or murine COX-2 was cloned into a BamH1 site of the baculovirus tra nsfer vector pVL1393 (Invitrogen) to generate the baculovirus transfer vectors for COX-1 and coX-2 in a manner similar to the method of D. R. O'Reilly et al (Baculovirus Expression Vectors: A Laboratory Manual (1992)). Recombinant baculoviruses were isolated by transfecting 4 μg of baculovirus transfer vector DNA into SF9 insect cells (2×10^8) along with 200 ng of linearized baculovirus plasmid DNA by the calcium phosphate method. See M. D. Summers and G. E. Smith, A Manual of Methods for Baculovirus Vectors and Insect Cell Culture Procedures, Texas Agric. Exp. Station Bull. 1555 (1987). Recombinant viruses were purified by three rounds of plaque purification and high titer (10^7-10^8 pfu/ml) stocks of virus were prepared. For large scale production, SF9 insect cells were infected in 10 liter fermentors (0.5×10^6/ml) with the recombinant baculovirus stock such that the multiplicity of infection was 0.1. After 72 hours the cells were centrifuged and the cell pellet homogenized in Tris/Sucrose (50 mM: 25%, pH 8.0) containing 1% 3-[(3-cholamidopropyl)dimethylammonio]-1-propanesulfonate (CHAPS). The homogenate was centrifuged at 10,000×G for 30 minutes, and the resultant supernatant was stored at −80° C. before being assayed for COX activity. […]
(§2) b. Assay for COX-1 and COX-2 activitv
COX activity was assayed as PGE2 formed/μg protein/time using an ELISA to detect the prostaglandin released. CHAPS-solubilized insect cell membranes containing the appropriate COX enzyme were incubated in a potassium phosphate buffer (50 mM, pH 8.0) containing epinephrine, phenol, and heme with the addition of arachidonic acid (10 μM). […] The PGE2 formed was measured by standard ELISA technology (Cayman Chemical).

5-lipoxygenase (5-LO) = target: T1, 5-lipoxygenase (5-LO) (Homo sapiens, UniProt P09917); test: 5-Lipoxygenase activity: calcium ionophore-induced LTB4 production in human whole blood; type: cell-based; conditions: A-23187 20 μg/ml, LTB4 by ELISA, mean IC50
T1 construct: Leukotriene B4 (LTB4) production in human whole blood; from tissue; host or cells: human whole blood (healthy donors, heparinized)
T1 sequence (P09917 1-674): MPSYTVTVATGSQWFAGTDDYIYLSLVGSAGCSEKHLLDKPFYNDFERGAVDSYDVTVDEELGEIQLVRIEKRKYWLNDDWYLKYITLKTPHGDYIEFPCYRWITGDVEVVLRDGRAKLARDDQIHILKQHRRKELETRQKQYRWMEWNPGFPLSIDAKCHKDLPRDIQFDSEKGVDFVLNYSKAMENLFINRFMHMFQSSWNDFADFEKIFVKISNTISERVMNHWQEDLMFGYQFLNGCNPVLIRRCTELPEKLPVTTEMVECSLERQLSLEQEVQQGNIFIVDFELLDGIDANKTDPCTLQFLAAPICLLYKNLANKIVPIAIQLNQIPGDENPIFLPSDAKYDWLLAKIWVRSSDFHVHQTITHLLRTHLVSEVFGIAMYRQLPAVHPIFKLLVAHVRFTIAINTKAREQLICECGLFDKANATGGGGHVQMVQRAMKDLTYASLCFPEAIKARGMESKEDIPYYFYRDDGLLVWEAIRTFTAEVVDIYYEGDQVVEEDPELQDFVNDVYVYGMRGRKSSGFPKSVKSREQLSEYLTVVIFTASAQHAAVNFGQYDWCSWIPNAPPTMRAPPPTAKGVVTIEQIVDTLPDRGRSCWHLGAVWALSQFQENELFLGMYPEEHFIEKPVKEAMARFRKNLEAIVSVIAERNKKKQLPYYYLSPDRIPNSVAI
Description: Assay for 5-Lipoxygenase activity
The 5-lipoxygenase (5-LO) activity of the compounds were determined by the calcium ionophore-induced Leukotriene B4 (LTB4) production in human whole blood. Venous blood was collected from healthy human donors using heparin as an anti-coagulant. Human blood samples (0.2 ml of a 1:4 dilution in RPMI 1640 medium) were incubated in 96-well culture plates for 15 minutes at 37° C. with test compounds dissolved in ethanol (EtOH; final concentration <1%), or vehicle. Typically 7 concentrations of test compounds were examined in duplicate. A-23187 [Sigma] was added to the blood to a final concentration of 20 μg/ml, and the mixtures were incubated for 10 minutes at 37° C. The reaction was stopped by placing the samples on ice. The samples were then centrifuged at 800×g at 4° C. for 10 minutes to pellet the cells, and the supernatants were recovered for quantitation of LTB4 by ELISA (Cayman Chemical Co.; sensitivity 3 pg/ml). IC50's were estimated from a four parameter logistic model with two parameters fixed, the minimum (0% inhibition) and maximum (100% inhibition). The IC50 value is the concentration that produces 50% inhibition between the fixed values of the minimum and maximum. Data is reported as the mean IC50 for each compound.

COX-2 = target: T2, COX-2 (UniProt P35354); test: COX-2 activity in vitro (PGE2 ELISA, recombinant enzyme); type: biochemical, human or murine; conditions: recombinant COX-2, arachidonic acid 10 μM
T2 sequence (P35354 1-604): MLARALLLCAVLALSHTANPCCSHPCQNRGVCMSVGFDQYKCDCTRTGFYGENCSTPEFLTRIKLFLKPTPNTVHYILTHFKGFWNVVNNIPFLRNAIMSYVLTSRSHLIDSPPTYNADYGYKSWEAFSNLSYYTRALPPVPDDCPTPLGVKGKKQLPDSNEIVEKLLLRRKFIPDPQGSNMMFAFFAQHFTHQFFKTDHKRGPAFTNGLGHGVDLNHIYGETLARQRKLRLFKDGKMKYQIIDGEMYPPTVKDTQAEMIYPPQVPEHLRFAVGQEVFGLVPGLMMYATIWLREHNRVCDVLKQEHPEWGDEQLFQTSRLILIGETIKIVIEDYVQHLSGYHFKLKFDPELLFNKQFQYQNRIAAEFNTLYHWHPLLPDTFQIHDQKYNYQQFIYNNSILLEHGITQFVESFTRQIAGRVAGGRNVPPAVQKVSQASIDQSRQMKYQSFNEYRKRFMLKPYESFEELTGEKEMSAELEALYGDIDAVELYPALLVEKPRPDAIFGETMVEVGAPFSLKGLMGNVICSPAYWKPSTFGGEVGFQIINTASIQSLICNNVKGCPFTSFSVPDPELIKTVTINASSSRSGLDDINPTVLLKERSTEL
Description: Evaluation of COX-1 and COX-2 activity in vitro
The COX-2 inhibition activity of the compounds of this invention illustrated in the Examples was determined by the following methods. a. Preparation of recombinant COX baculoviruses
as §1, §2
COX activity was assayed as PGE2 formed/μg protein/time using an ELISA to detect the prostaglandin released. […] The PGE2 formed was measured by standard ELISA technology (Cayman Chemical).

CN(O)C(=O)Cc1cc(-c2ccc(Cl)cc2)n(-c2ccc(S(N)(=O)=O)cc2)n1 [Example 3, [1-[4-(Aminosulfonyl)phenyl]-5-(4-chlorophenyl)-1H-pyrazol-3-yl]-N-hydroxy-N-methyl-ethanamide]
melting point: 110 to 135 °C (dec.)

CN(O)C(=O)CCc1nc(-c2ccc(F)cc2)c(-c2ccc(S(C)(=O)=O)cc2)o1 [Example 2, 4-(4-Fluorophenyl)-N-hydroxy-N-methyl-5-[(4-methylsulfonyl)phenyl]-2-oxazolepropanamide]
RAT PAW EDEMA % Inhibition @ 10 mg/kg body weight (carrageenan foot edema): 2%
pIC50 (COX-1): < 4.00
pIC50 (5-lipoxygenase (5-LO)): 7.30
pIC50 (COX-2): 5.29

NS(=O)(=O)c1ccc(-c2nc(CCCC(=O)NO)oc2-c2ccc(Cl)c(Cl)c2)cc1 [Example 4, 4-[(4-Aminosulfonyl)phenyl]-5-(3,4-dichlorophenyl)-N-hydroxy-2-oxazole-butanamide]
pIC50 (COX-1): 4.90
pIC50 (COX-2): 6.52
melting point: 165 to 169.7 °C

NC(=O)N(O)Cc1cc(-c2ccc(Cl)cc2)n(-c2ccc(S(N)(=O)=O)cc2)n1 [Example 1, N′-[[1-[4-(Aminosulfonyl)phenyl]-5-(4-chlorophenyl)-1H-pyrazol-3-yl]methyl]-N′-hydroxyurea]
pIC50 (COX-1): 4.27
pIC50 (5-lipoxygenase (5-LO)): 4.91
pIC50 (COX-2): 5.18
